Measurements taken from US20040106626A1, “6-Membered unsaturated heterocyclic compounds useful for selective inhibition of the coagulation cascade” (Pharmacia Corporation, priority 2001, published 2004).

Experiments:
Format in all cases: biochemical
[1] = molecular target: T1, recombinant soluble tissue factor and recombinant human factor VIIa (TF-VIIa) (Homo sapiens, UniProt P08709); assay: TF-VIIa assay (chromogenic substrate hydrolysis); conditions: reported only as less than or greater than 0.1 uM
T1 construct: conversion of coagulation factor VII to VIIa by factor Xa; purchased American Diagnostica, Greenwich CT; host or cells: soluble TF made in house in E. coli
T1 sequence (P08709 213-466 limits assumed): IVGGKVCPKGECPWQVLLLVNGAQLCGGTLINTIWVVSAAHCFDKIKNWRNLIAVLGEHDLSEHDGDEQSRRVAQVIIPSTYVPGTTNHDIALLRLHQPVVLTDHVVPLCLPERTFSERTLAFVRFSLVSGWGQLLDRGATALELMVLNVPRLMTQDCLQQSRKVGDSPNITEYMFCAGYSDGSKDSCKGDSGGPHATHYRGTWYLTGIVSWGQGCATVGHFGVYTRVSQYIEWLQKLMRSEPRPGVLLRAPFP
T1 sequence (P08709 61-212 limits assumed): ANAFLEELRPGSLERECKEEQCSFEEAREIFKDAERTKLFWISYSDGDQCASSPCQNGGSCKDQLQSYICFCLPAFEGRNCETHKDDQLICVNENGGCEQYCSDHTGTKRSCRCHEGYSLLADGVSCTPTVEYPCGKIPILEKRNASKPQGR
T1 sequence (P13726 33-251 partner limits assumed): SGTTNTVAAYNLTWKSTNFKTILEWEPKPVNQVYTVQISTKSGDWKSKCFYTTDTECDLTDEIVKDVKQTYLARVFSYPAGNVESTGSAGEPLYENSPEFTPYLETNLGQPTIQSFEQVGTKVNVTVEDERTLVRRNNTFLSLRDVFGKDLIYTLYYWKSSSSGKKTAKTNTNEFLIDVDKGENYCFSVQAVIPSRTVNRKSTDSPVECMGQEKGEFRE
Procedure, shortened: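 Chromogenic read at OD405, compared with control for percent inhibition. Substrate N-methylsulfonyl-D-phe-gly-arg-p-nitroaniline at 0.4 mM is cleaved by recombinant human VIIa (2 nM) complexed with soluble TF (100 nM). Buffer: pH 8.0 Tris-HCl 50 mM, CaCl2 5 mM, NaCl 100 mM, BSA 0.1%.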

[2] = molecular target: T2, Human factor Xa (Homo sapiens, UniProt P00742); assay: Xa assay (chromogenic substrate S-2765); conditions: reported only as less than or greater than 30 uM; read-out: Factor Xa (II) IC50
T2 construct: purchased Enzyme Research Laboratories, South Bend Ind
T2 sequence (P00742 235-488 limits assumed): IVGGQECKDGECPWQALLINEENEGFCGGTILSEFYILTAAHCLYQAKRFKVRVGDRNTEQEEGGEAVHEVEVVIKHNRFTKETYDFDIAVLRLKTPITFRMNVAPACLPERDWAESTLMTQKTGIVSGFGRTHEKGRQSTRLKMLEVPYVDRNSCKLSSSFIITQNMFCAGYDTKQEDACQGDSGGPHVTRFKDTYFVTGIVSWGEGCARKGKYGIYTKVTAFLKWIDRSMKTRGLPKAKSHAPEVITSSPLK
T2 sequence (P00742 41-179 limits assumed): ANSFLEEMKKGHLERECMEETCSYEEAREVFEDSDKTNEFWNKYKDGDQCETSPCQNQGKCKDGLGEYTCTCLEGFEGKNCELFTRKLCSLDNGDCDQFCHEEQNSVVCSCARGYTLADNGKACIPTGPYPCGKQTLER
Procedure, shortened: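 Chromogenic readout: S-2765 hydrolysis (0.15 mM) by 0.3 nM human FXa was monitored at 405 nm after 60 min at room temperature, with a time-zero background read. Buffer: 50 mM Tris-HCl, pH 8.0, 100 mM NaCl, 0.1% BSA. Inhibition is relative to buffer-only controls.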

[3] = molecular target: T3, Human thrombin (Homo sapiens, UniProt P00734); assay: Thrombin assay (chromogenic substrate); conditions: reported only as less than or greater than 30 uM; read-out: Thrombin (II) IC50
T3 construct: converts prothrombin (II) to thrombin (IIa); purchased Calbiochem, La Jolla, Calif
Procedure, shortened: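 Percent inhibition derived by comparing OD405 nm of compound-treated and control samples. Thrombin cleavage of a p-nitroanilide chromogenic substrate provides the signal.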

[4] = system: Normal human pooled plasma; assay: Prothrombin time (PT) clotting assay; conditions: concentration at which prothrombin time is prolonged by 2x normal, reported as less than or greater than 50 uM
Procedure, shortened: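 Normal human pooled plasma incubated with 100 uM compound or saline, then thromboplastin (human tissue factor) added and clotting time recorded in a coagulation machine. Compounds exceeding 3× normal PT (11.0 s) are titrated to find the concentration doubling PT.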

| Structure (SMILES) | IC50 [1] [µM] | IC50 [2] [µM] | IC50 [3] [µM] | PT (Prothrombin time) 2xPT [4] [µM] |
| --- | --- | --- | --- | --- |
| CC(C)Nc1ncc(-c2cc(N)cc(NC(=O)CC(C)(C)C)c2)n(CC(=O)NCc2ccc(C(=N)N)cc2)c1=O.O=C(O)C(F)(F)F.O=C(O)C(F)(F)F [Example 133] | < 0.1 | > 30 | < 30 | <50.0 |
| CCC(CC)C(=O)Nc1cc(N)cc(-c2cnc(NC(C)C)c(=O)n2CC(=O)NCc2ccc(C(=N)N)cc2)c1.O=C(O)C(F)(F)F.O=C(O)C(F)(F)F [Example 134] | < 0.1 | > 30 | < 30 | <50.0 |
| CC(C)CCC(=O)Nc1cc(N)cc(-c2cnc(NC(C)C)c(=O)n2CC(=O)NCc2ccc(C(=N)N)cc2)c1.O=C(O)C(F)(F)F.O=C(O)C(F)(F)F [Example 135] | < 0.1 | > 30 | < 30 | <50.0 |
| CCCC(CCC)C(=O)Nc1cc(N)cc(-c2cnc(NC(C)C)c(=O)n2CC(=O)NCc2ccc(C(=N)N)cc2)c1.O=C(O)C(F)(F)F.O=C(O)C(F)(F)F [Example 136] | < 0.1 | > 30 | < 30 | <50.0 |
| CCCCC(CC)C(=O)Nc1cc(N)cc(-c2cnc(NC(C)C)c(=O)n2CC(=O)NCc2ccc(C(=N)N)cc2)c1.O=C(O)C(F)(F)F.O=C(O)C(F)(F)F (stereo not drawn) [Example 137] | < 0.1 | > 30 | < 30 | <50.0 |
| CC(CC(=O)Nc1cc(N)cc(-c2cnc(NC(C)C)c(=O)n2CC(=O)NCc2ccc(C(=N)N)cc2)c1)CC(C)(C)C.O=C(O)C(F)(F)F.O=C(O)C(F)(F)F (stereo not drawn) [Example 139] | < 0.1 | > 30 | < 30 | <50.0 |
| CC(C)Nc1ncc(-c2cc(N)cc(NC(=O)[C@H]3C[C@@H]3c3ccccc3)c2)n(CC(=O)NCc2ccc(C(=N)N)cc2)c1=O.O=C(O)C(F)(F)F.O=C(O)C(F)(F)F [Example 140] | < 0.1 | > 30 | < 30 | <50.0 |
| CC(C)Nc1ncc(-c2cc(N)cc(NC(=O)CC3CCCC3)c2)n(CC(=O)NCc2ccc(C(=N)N)cc2)c1=O.O=C(O)C(F)(F)F.O=C(O)C(F)(F)F [Example 141] | < 0.1 | > 30 | < 30 | <50.0 |
| CC(C)Nc1ncc(-c2cc(N)cc(NC(=O)c3ccc(N(C)C)cc3)c2)n(CC(=O)NCc2ccc(C(=N)N)cc2)c1=O.O=C(O)C(F)(F)F.O=C(O)C(F)(F)F [Example 142] | < 0.1 | > 30 | > 30 | <50.0 |
| CCC(C(=O)Nc1cc(N)cc(-c2cnc(NC(C)C)c(=O)n2CC(=O)NCc2ccc(C(=N)N)cc2)c1)c1ccccc1.O=C(O)C(F)(F)F.O=C(O)C(F)(F)F (stereo not drawn) [Example 143] | < 0.1 | > 30 | < 30 | <50.0 |
| CC(C)Nc1ncc(-c2cc(N)cc(NC(=O)C3CC3)c2)n(CC(=O)NCc2ccc(C(=N)N)cc2)c1=O.O=C(O)C(F)(F)F.O=C(O)C(F)(F)F [Example 144] | < 0.1 | > 30 | > 30 | <50.0 |
| CC(C)Nc1ncc(-c2cc(N)cc(C(=O)NCc3ccccc3)c2)n(CC(=O)NCc2ccc(C(=N)N)c(O)c2)c1=O.O=C(O)C(F)(F)F [Example 161, 3-amino-5-[1-[2-({4-[amino(imino)methyl]-3-hydroxybenzyl}amino)-2-oxoethyl]-5-(isopropylamino)-6-oxo-1,6-dihydropyrazin-2-yl]-N-benzylbenzamide] | < 0.1 | > 30 | > 30 | <50.0 |
| CC(C)Nc1ncc(-c2cc(N)cc(C(=O)NCc3ccc(F)cc3)c2)n(CC(=O)NCc2ccc(C(=N)N)c(O)c2)c1=O.O=C(O)C(F)(F)F [Example 162, 3-amino-5-[1-[2-({4-[amino(imino)methyl]-3-hydroxybenzyl}amino)-2-oxoethyl]-5-(isopropylamino)-6-oxo-1,6-dihydropyrazin-2-yl]-N-(4-fluorobenzyl) benzamide] | < 0.1 | > 30 | > 30 | <50.0 |
| CC[C@H](C)NC(=O)c1cc(N)cc(-c2cnc(NC(C)C)c(=O)n2CC(=O)NCc2c(F)c(O)c(C(=N)N)c(F)c2F)c1.Cl.Cl [Example 164] | < 0.1 | > 30 | > 30 | <50.0 |
| COC(=O)CCNC(=O)c1cc(N)cc(-c2cnc(NC(C)C)c(=O)n2CC(=O)NCc2ccc(C(=N)N)cc2)c1 [Example 165] | < 0.1 | > 30 | > 30 | <50.0 |
| CC(C)Nc1ncc(-c2cc(N)cc(C(=O)NCc3cccc(O)c3)c2)n(CC(=O)NCc2ccc(C(=N)N)cc2)c1=O [Example 166] | < 0.1 | > 30 | > 30 | <50.0 |
| CC[C@H](C)NC(=O)c1cc(N)cc(-c2cnc(NC(C)C)c(=O)n2CC(=O)NCc2ccc(C(=N)N)cc2O)c1.O=C(O)C(F)(F)F [Example 167, 3-amino-5-[1-[2-({4-[amino(imino)methyl]-2-hydroxybenzyl}amino)-2-oxoethyl]-5-(isopropylamino)-6-oxo-1,6-dihydropyrazin-2-yl]-N-[(1S)-1-methylpropyl]benzamide] | < 0.1 | > 30 | < 30 | <50.0 |
| COC(=O)c1ccc(CNC(=O)c2cc(N)cc(-c3cnc(NC(C)C)c(=O)n3CC(=O)NCc3ccc(C(=N)N)cc3)c2)cc1.O=C(O)C(F)(F)F [Example 169] | < 0.1 | > 30 | < 30 | <50.0 |
| Cc1cc(N)cc(-c2cnc(NC(C)C)c(=O)n2CC(=O)NCc2ccc(C(=N)N)cc2)c1.Cl.Cl [Example 170] | < 0.1 | > 30 | > 30 | <50.0 |
| CC(C)Nc1ncc(-c2cc(N)cc(C(=O)NCc3ccc(C(=O)O)cc3)c2)n(CC(=O)NCc2ccc(C(=N)N)cc2)c1=O.O=C(O)C(F)(F)F.O=C(O)C(F)(F)F [Example 171] | < 0.1 | > 30 | > 30 | <50.0 |
| CC(C)Nc1ncc(-c2cc(N)cc(C(=O)NCCC(=O)O)c2)n(CC(=O)NCc2ccc(C(=N)N)cc2)c1=O.O=C(O)C(F)(F)F.O=C(O)C(F)(F)F [Example 172] | < 0.1 | > 30 | > 30 | <50.0 |
| COc1ccc(CNC(=O)c2cc(N)cc(-c3cnc(NC(C)C)c(=O)n3CC(=O)NCc3ccc(C(=N)N)cc3)c2)cc1.O=C(O)C(F)(F)F.O=C(O)C(F)(F)F [Example 174] | < 0.1 | > 30 | > 30 | <50.0 |
| CC(=O)Oc1cc(N)cc(-c2cnc(NC(C)C)c(=O)n2CC(=O)NCc2ccc(C(=N)N)cc2)c1.O=C(O)C(F)(F)F [Example 175] | < 0.1 | > 30 | > 30 | <50.0 |
| CC(C)Nc1ncc(-c2cc(N)cc(C(=O)NCc3ccc(O)cc3)c2)n(CC(=O)NCc2ccc(C(=N)N)cc2)c1=O.O=C(O)C(F)(F)F [Example 176] | < 0.1 | > 30 | > 30 | <50.0 |
| COc1cccc(CNC(=O)c2cc(N)cc(-c3cnc(NC(C)C)c(=O)n3CC(=O)NCc3ccc(C(=N)N)cc3)c2)c1.O=C(O)C(F)(F)F [Example 177] | < 0.1 | > 30 | > 30 | <50.0 |
| N=C(N)c1ccc(CNC(=O)Cn2c(-c3cc(N)cc(O)c3)cnc(NC3CC3)c2=O)cc1.O=C(O)C(F)(F)F.O=C(O)C(F)(F)F [Example 179] | < 0.1 | > 30 | > 30 | <50.0 |
| CC(C)Nc1ncc(-c2cc(N)cc(O)c2)n(CC(=O)NCc2ccc(C(=N)N)c(O)c2)c1=O.O=C(O)C(F)(F)F [Example 181, 2-[6-(3-amino-5-hydroxyphenyl)-3-(isopropylamino)-2-oxopyrazin-1 (2H)-yl]-N-{4-[amino(imino)methyl]-3-hydroxybenzyl}acetamide] | > 0.1 | > 30 | > 30 | >50.0 |
